The compounds below were run on HCV pseudoparticles (assay: HCV pseudoparticle infection assay (luciferase reporter, Huh7 cells)). Settings: Hepatitis C virus, genotype 1b, Huh-7, 48 h, HCV pseudoparticles (genotype 1b), luciferase activity 2 days after infection.
Type: cell-based, HCV (genotype 1b E1 and E2 envelope)

Row | Structure (SMILES) | EC50 [nM]
1 | O=C(NS(=O)(=O)c1ccc(Nc2nc(NC3(c4ccc(Cl)cc4)CC3)nc(OCC(F)(F)F)n2)cc1)C1(CN2CCCCC2)CC1 [Example 3002] | 477
2 | O=C(CCCNC(=O)c1ccc(Nc2nc(NC3(c4ccc(Cl)cc4)CC3)nc(OCC(F)(F)F)n2)cc1)N[C@]1(C(=O)NS(=O)(=O)C2(C(F)F)CC2)C[C@H]1C1CC1 [Example 2045] | 0.72
3 | CN(C)CC1(S(=O)(=O)NC(=O)c2ccc(Nc3nc(OCC(F)(F)F)nc(N4CCN(S(=O)(=O)c5ccccc5Cl)CC4)n3)cc2)CC1 [Example 8033] | 36100
4 | O=C(NS(=O)(=O)C1(Cc2ccccc2)CC1)c1ccc(Nc2nc(NC3(c4ccc(Cl)cc4)CC3)nc(OCC(F)(F)F)n2)cc1 [Example 8014] | 12.7
5 | O=C(CN1CCCC1=O)NCC1(C(=O)NS(=O)(=O)c2ccc(Nc3nc(NC4(c5ccc(Cl)cc5)CC4)nc(OCC(F)(F)F)n3)cc2)CC1 [Example 3008] | 976
6 | CN(C)CC1(C(=O)NS(=O)(=O)c2ccc(Nc3nc(NC4(c5ccc(Cl)cc5)CC4)nc(OCC(F)(F)F)n3)cc2)CC1 [Example 3006] | 2700

Same assay, conditions: Hepatitis C virus, genotype 1b, Huh-7, 48 h, HCV pseudoparticles (genotype 1b), luciferase activity 2 days after infection, class

Row | Structure (SMILES) | EC50 [nM]
7 | O=C(CCCNC(=O)c1ccc(Nc2nc(NC3(c4ccc(Cl)cc4)CC3)nc(OCC(F)(F)F)n2)cc1)NCCC(=O)N[C@]1(C(=O)NS(=O)(=O)C2CC2)C[C@H]1C1CC1 [Example 2064] | 0.5 to 100
8 | O=C(NS(=O)(=O)c1ccccc1)c1ccc(Nc2nc(NC3(c4ccc(Cl)cc4)CC3)nc(OCC(F)(F)F)n2)cc1 [Example 8011] | 0.5 to 100
9 | O=C(CCNC(=O)c1ccc(Nc2nc(NC3(c4ccc(Cl)cc4)CC3)nc(OCC(F)(F)F)n2)cc1)NS(=O)(=O)C1CC1 [Example 2021] | 0.5 to 100
10 | CN1CCN(CC2(S(=O)(=O)NC(=O)c3ccc(Nc4nc(NC5(c6ccc(Cl)cc6)CC5)nc(OCC(F)(F)F)n4)cc3)CC2)CC1 [Example 1020] | 0.5 to 100
11 | Cc1ccccc1C(=O)N1CCN(c2nc(Nc3ccc(C(=O)NS(=O)(=O)C4(CN(C)C)CC4)cc3)nc(OCC(F)(F)F)n2)CC1 [Example 8040] | 1000 to 5000
12 | NC(=O)c1ccc(Nc2nc(N[C@]3(C(=O)NS(=O)(=O)C4CC4)C[C@H]3C3CC3)nc(OCC(F)(F)F)n2)cc1 [Example 8001] | 1000 to 5000
13 | CC(C)S(=O)(=O)NC(=O)c1ccc(Nc2nc(NC3(c4ccc(Cl)cc4)CC3)nc(OCC(F)(F)F)n2)cc1 [Example 1005] | 0.5 to 100
14 | C=C[C@@H]1C[C@]1(NC(=O)C1(CNC(=O)c2ccc(Nc3nc(NC4(c5ccc(Cl)cc5)CC4)nc(OCC(F)(F)F)n3)cc2)CC1)C(=O)NS(=O)(=O)C(C)(C)C [Example 2068] | 0.5 to 100
15 | CC(C)(CNC(=O)c1ccc(Nc2nc(NC3(c4ccc(Cl)cc4)CC3)nc(OCC(F)(F)F)n2)cc1)C(=O)NS(C)(=O)=O [Example 2085] | 0.5 to 100
16 | O=C(NS(=O)(=O)c1ccc(Nc2nc(NC3(c4ccc(Cl)cc4)CC3)nc(OCC(F)(F)F)n2)cc1)C1(CN2CCCCC2)CC1 [Example 3002] | 100 to 1000
17 | CC(=O)N1CCN(c2nc(Nc3ccc(C(=O)NS(=O)(=O)C4(CN(C)C)CC4)cc3)nc(OCC(F)(F)F)n2)CC1 [Example 8024] | 1000 to 5000
18 | CC(C)NCCS(=O)(=O)NC(=O)c1ccc(Nc2nc(NC3(c4ccc(Cl)cc4)CC3)nc(OCC(F)(F)F)n2)cc1 [Example 1035] | 0.5 to 100
19 | Cc1ccccc1S(=O)(=O)NC(=O)c1ccc(Nc2nc(NC3(c4ccc(Cl)cc4)CC3)nc(OCC(F)(F)F)n2)cc1 [Example 8012] | 0.5 to 100
20 | CN(C)CC1(S(=O)(=O)NC(=O)c2ccc(Nc3nc(OCC(F)(F)F)nc(N4CCN(S(=O)(=O)c5ccccc5)CC4)n3)cc2)CC1 [Example 8031] | 1000 to 5000
21 | CC(C)S(=O)(=O)N1CCN(c2nc(Nc3ccc(C(=O)NS(=O)(=O)C4(CN(C)C)CC4)cc3)nc(OCC(F)(F)F)n2)CC1 [Example 8026] | 1000 to 5000
22 | Cn1cnc(C[C@H](NC(=O)c2ccc(Nc3nc(NC4(c5ccc(Cl)cc5)CC4)nc(OCC(F)(F)F)n3)cc2)C(=O)N[C@]2(C(=O)NS(=O)(=O)C3CC3)C[C@H]2C2CC2)c1 [Example 8019] | 0.5 to 100
23 | O=C(NS(=O)(=O)c1ccc(Nc2nc(NC3(c4ccc(Cl)cc4)CC3)nc(OCC(F)(F)F)n2)cc1)C1(CN2CCCC2)CC1 [Example 3001] | 1000 to 5000
24 | CCN(CC)CCS(=O)(=O)NC(=O)c1ccc(Nc2nc(NC3(c4ccc(Cl)cc4)CC3)nc(OCC(F)(F)F)n2)cc1 [Example 1032] | 0.5 to 100
25 | CC(C)NC(=O)OCC1(S(=O)(=O)NC(=O)c2ccc(Nc3nc(NC4(c5ccc(Cl)cc5)CC4)nc(OCC(F)(F)F)n3)cc2)CC1 [Example 1027] | 0.5 to 100
26 | C=C[C@@H]1C[C@]1(NC(=O)C1(CNC(=O)c2ccc(Nc3nc(NC4(c5ccc(Cl)cc5)CC4)nc(OCC(F)(F)F)n3)cc2)CC1)C(=O)NS(=O)(=O)C1CC1 [Example 2065] | 0.5 to 100
27 | C[C@H](NC(=O)CCCNC(=O)c1ccc(Nc2nc(NC3(c4ccc(Cl)cc4)CC3)nc(OCC(F)(F)F)n2)cc1)C(=O)NS(=O)(=O)C1CC1 [Example 2057] | 0.5 to 100
28 | CC(C)(C)OC(=O)N1CCC(C(=O)NCCS(=O)(=O)NC(=O)c2ccc(Nc3nc(NC4(c5ccc(Cl)cc5)CC4)nc(OCC(F)(F)F)n3)cc2)CC1 [Example 1042] | 0.5 to 100
29 | CN(C)S(=O)(=O)NC(=O)C(C)(C)CNC(=O)c1ccc(Nc2nc(NC3(c4ccc(Cl)cc4)CC3)nc(OCC(F)(F)F)n2)cc1 [Example 2093] | 0.5 to 100
30 | O=C(CCCNC(=O)c1ccc(Nc2nc(NC3(c4ccc(Cl)cc4)CC3)nc(OCC(F)(F)F)n2)cc1)N[C@]1(C(=O)NS(=O)(=O)C2(C(F)F)CC2)C[C@H]1C1CC1 [Example 2045] | 0.5 to 100
31 | CC(C)(C)COC(=O)NCCS(=O)(=O)NC(=O)c1ccc(Nc2nc(NC3(c4ccc(Cl)cc4)CC3)nc(OCC(F)(F)F)n2)cc1 [Example 1046] | 0.5 to 100

Row | Structure (SMILES) | EC50 [nM]
32 | CCS(=O)(=O)N1CCN(c2nc(Nc3ccc(C(=O)NS(=O)(=O)C4(CN(C)C)CC4)cc3)nc(OCC(F)(F)F)n2)CC1 [Example 8023] | 1000 to 5000
33 | CN(C)S(=O)(=O)NC(=O)[C@@]1(NC(=O)CCCNC(=O)c2ccc(Nc3nc(NC4(c5ccc(Cl)cc5)CC4)nc(OCC(F)(F)F)n3)cc2)C[C@H]1C1CC1 [Example 2043] | 0.5 to 100
34 | CN(C)CC1(S(=O)(=O)NC(=O)c2ccc(Nc3nc(OCC(F)(F)F)nc(N4CCN(S(=O)(=O)c5ccccc5Cl)CC4)n3)cc2)CC1 [Example 8033] | 1000 to 5000
35 | O=C(NCCS(=O)(=O)NC(=O)c1ccc(Nc2nc(NC3(c4ccc(Cl)cc4)CC3)nc(OCC(F)(F)F)n2)cc1)c1cccnc1 [Example 1043] | 0.5 to 100
36 | CC(C)(CNC(=O)c1ccc(Nc2nc(NC3(c4ccc(Cl)cc4)CC3)nc(OCC(F)(F)F)n2)cc1)C(=O)N[C@]1(C(=O)NS(=O)(=O)C2CC2)C[C@H]1C1CC1 [Example 2081] | 0.5 to 100
37 | O=C(NS(=O)(=O)C1(Cc2ccccc2)CC1)c1ccc(Nc2nc(NC3(c4ccc(Cl)cc4)CC3)nc(OCC(F)(F)F)n2)cc1 [Example 8014] | 0.5 to 100
38 | NC(=O)c1ccc(Nc2nc(NC3(C(=O)NS(=O)(=O)C4CC4)CC3)nc(OCC(F)(F)F)n2)cc1 [Example 8002] | 1000 to 5000
39 | C=C[C@@H]1C[C@]1(NC(=O)C(C)(C)CNC(=O)c1ccc(Nc2nc(NC3(c4ccc(Cl)cc4)CC3)nc(OCC(F)(F)F)n2)cc1)C(=O)NS(=O)(=O)C1CC1 [Example 2080] | 0.5 to 100
40 | C=CS(=O)(=O)NC(=O)CCCCNC(=O)c1ccc(Nc2nc(NC3(c4ccc(Cl)cc4)CC3)nc(OCC(F)(F)F)n2)cc1 [Example 2015] | 0.5 to 100
41 | CN(C)CC1(S(=O)(=O)NC(=O)c2ccc(Nc3nc(OCC(F)(F)F)nc(N4CCN(S(=O)(=O)c5cccc(F)c5)CC4)n3)cc2)CC1 [Example 8036] | 1000 to 5000
42 | O=C(CN1CCCC1=O)NCC1(C(=O)NS(=O)(=O)c2ccc(Nc3nc(NC4(c5ccc(Cl)cc5)CC4)nc(OCC(F)(F)F)n3)cc2)CC1 [Example 3008] | 100 to 1000
43 | CN(C)CC1(C(=O)NS(=O)(=O)c2ccc(Nc3nc(NC4(c5ccc(Cl)cc5)CC4)nc(OCC(F)(F)F)n3)cc2)CC1 [Example 3006] | 1000 to 5000
44 | O=C(NCC1(CN2CCCC2)CC1)c1ccc(Nc2nc(NC3(c4ccc(C(=O)NS(=O)(=O)C5CCC5)cc4)CC3)nc(OCC(F)(F)F)n2)cc1 [Example 7002] | 0.5 to 100
45 | O=C(NS(=O)(=O)C1(CN2CCOCC2)CC1)c1ccc(Nc2nc(NC3(c4ccc(Cl)cc4)CC3)nc(OCC(F)(F)F)n2)cc1 [Example 1015] | 0.5 to 100
46 | CC(C)C(=O)NCCS(=O)(=O)NC(=O)c1ccc(Nc2nc(NC3(c4ccc(Cl)cc4)CC3)nc(OCC(F)(F)F)n2)cc1 [Example 1038] | 0.5 to 100
47 | O=C(CCCNC(=O)c1ccc(Nc2nc(NC3(c4ccc(Cl)cc4)CC3)nc(OCC(F)(F)F)n2)cc1)N[C@]1(C(=O)NS(=O)(=O)C2CC2)C[C@H]1C1CC1(F)F (stereo partly shown) [Example 2037] | 0.5 to 100
48 | CN(C)CCS(=O)(=O)NC(=O)c1ccc(Nc2nc(NC3(c4ccc(Cl)cc4)CC3)nc(OCC(F)(F)F)n2)cc1 [Example 1031] | 0.5 to 100
49 | O=C(CCCNC(=O)c1ccc(Nc2nc(NC3(c4ccc(Cl)cc4)CC3)nc(OCC(F)(F)F)n2)cc1)N[C@]1(C(=O)NS(=O)(=O)C2(F)CC2)C[C@H]1C1CC1 [Example 2044] | 0.5 to 100
50 | CCN(CC)CC1(S(=O)(=O)NC(=O)c2ccc(Nc3nc(NC4(c5ccc(Cl)cc5)CC4)nc(OCC(F)(F)F)n3)cc2)CC1 [Example 1014] | 0.5 to 100
51 | C=CS(=O)(=O)NC(=O)C(C)(C)CNC(=O)c1ccc(Nc2nc(NC3(c4ccc(Cl)cc4)CC3)nc(OCC(F)(F)F)n2)cc1 [Example 2086] | 0.5 to 100
52 | CC(C)S(=O)(=O)NC(=O)CCNC(=O)CCCNC(=O)c1ccc(Nc2nc(NC3(c4ccc(Cl)cc4)CC3)nc(OCC(F)(F)F)n2)cc1 [Example 2061] | 0.5 to 100
53 | C[C@@H](NC(=O)CCCNC(=O)c1ccc(Nc2nc(NC3(c4ccc(Cl)cc4)CC3)nc(OCC(F)(F)F)n2)cc1)C(=O)NS(=O)(=O)C1CC1 [Example 2053] | 0.5 to 100
54 | CS(=O)(=O)NC(=O)[C@@]1(NC(=O)CCCNC(=O)c2ccc(Nc3nc(NC4(c5ccc(Cl)cc5)CC4)nc(OCC(F)(F)F)n3)cc2)C[C@H]1C1CC1 [Example 2039, 4-(4-(1-(4-chlorophenyl)cyclopropylamino)-6-(2,2,2-trifluoroethoxy)-1,3,5-triazin-2-ylamino)-N-(4-((1S,2R)-2-(methylsulfonylcarbamoyl)bi(cyclopropan)-2-ylamino)-4-oxobutyl)benzamide] | 0.5 to 100
55 | O=C(CCCNC(=O)c1ccc(Nc2nc(NC3(c4ccc(Cl)cc4)CC3)nc(OCC(F)(F)F)n2)cc1)NCCC(=O)NS(=O)(=O)C1CC1 [Example 2062] | 0.5 to 100
